{"source": "patent US7390915B1", "about": "“Phosphine transition metal complex having ferrocene skeleton, process for making the same, and anti-cancer agent” (Nippon Chemical Industrial Co., Ltd, priority 2007, dated 2008)"}
{"system": "HL-60 (human acute myeloid leukemia cells)", "assay": "Evaluation of anti-cancer activity: HL-60 cell survival by modified Mosmann (MTT) method", "assay_type": "cell-based", "details": "read-out: IC50 (concentration of inhibitor that inhibits cell growth to 50%), HL-60 cells, 24 hours culture with compound, average of at least three experiments", "experimental": "<Evaluation of Anti-Cancer Activity>\nHL-60 (human acute myeloid leukemia cells) as the cancerous cells was cultured under a 5% CO2 atmosphere in a wet incubator at 37° C. in a Roswell Park Memorial Institute medium (RPMI 1640) supplemented with 10% fetal bovine serum and 1% antibiotic and antimycotic.\nThe cells were washed with PBS and counted. A 1×10^6 cells/mL suspension was then prepared using the same medium. The suspension was added to a sterilized 96-well microplate at a density of 50000 cells per well.\nThe number of survived cells was then evaluated by a modified Mosmann method (T. Mosmann, J. Immunol. Method (1983) 65, 55-63). That is, a solution of a tetrazolium salt (3,[4,5-dimethylthiazol-2-yl]-2,5-diphenyltetrazolium bromide (MTT)) was added, and the culture was continued for 3 hours under the same conditions. Formazan crystals generated by enzymatic activity of the mitochondria in the cells were dissolved in 0.04 mol HCl/isopropyl alcohol and the absorbance at 595 nm was measured using a microplate reader (Bio-Rad 550). In order to eliminate the background, the absorbance at 630 nm was measured and subtracted from the observed absorbance at 595 nm. […] Note that in calculating the IC50 value, the average of values of at least three experiments conducted under the same conditions was used.", "units": {"IC50": "µM"}}
{"substance": "Bis((R)-1-((S)-2-(dicyclohexylphosphino)ferrocenyl)ethyldiphenylphosphine)gold(I)chloride [Example 3]", "IC50": 7.92}
{"substance": "bis(1,1′-bis-(diphenylphosphino)-2,2-bis-[(S)-4-sec-butyl-2-yl]ferrocene)digold(I)dichloride [Example 8]", "IC50": 3.54}
{"substance": "bis(1,1′-bis-(diphenylphosphino)-2,2-bis-[(S)-4-tert-butyl-2-yl]ferrocene)digold(I)dichloride [Example 6]", "IC50": 2.31}
{"substance": "Bis((R)-1-((S)-2-(diphenylphosphino)ferrocenyl)ethyldicyclohexylphosphine)gold(I)chloride [Example 2]", "IC50": 8.69}
{"substance": "bis(1,1′-bis-(diphenylphosphino)-2,2-bis-[(S)-4-isopropyl-2-yl]ferrocene)digold(I)dichloride [Example 5]", "IC50": 0.803}
{"substance": "Bis((R)-1-((S)-2-(dicyclohexylphosphino)ferrocenyl)ethyldicyclohexylphosphine)gold(I)chloride [Example 1]", "IC50": 19.2}
{"substance": "bis(1,1′-bis-(diphenylphosphino)-2,2-bis-[(S)-4-isobutyl-2-yl]ferrocene)digold(I)dichloride [Example 7]", "IC50": 2.1}
{"substance": "Bis((S)-1-((R)-2-(dicyclohexylphosphino)ferrocenyl)ethyldiphenylphosphine)gold(I)chloride [Example 4]", "IC50": 9.21}
